Literature values, collected in patent US20230000079A1, “COMBINATION COMPRISING A TRIKETONE HERBICIDE AND A DIPHENYLETHER HERBICIDE, AND A METHOD FOR MAKING AND USING THE COMBINATION” (Generic Crop Science LLC, priority 2021, published 2023).
≈ marks a conversion by molar mass, not a printed value.

SMILES	solubility in most organic solvents	solubility in water	water solubility (20° C.)
CCOc1cc(Oc2ccc(C(F)(F)F)cc2Cl)ccc1[N+](=O)[O-] [Oxyfluorfen, 2-chloro-4-(trifluoromethyl)phenyl 3-ethoxy-4-nitrophenyl ether]	highly soluble	0.1 µg/mL (≈ 0.276 µM)	
CS(=O)(=O)c1ccc(C(=O)C2C(=O)CCCC2=O)c([N+](=O)[O-])c1 [Mesotrione, 2-[4-(methylsulfonyl)-2-nitrobenzoyl]cyclohexane-1,3-dione]			1,500 mg/L
